Source: US12655116B2, “Substituted isophthalic acid diamides” (Bayer Aktiengesellschaft, priority 2020, dated 2026)

What was measured:
[1] = tested on: ECHCG; assay: Post-emergence herbicidal action against ECHCG; format: in vivo, Echinochloa crus-galli
Method in brief: (§1)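 Percent herbicidal action is rated by eye about 3 weeks after treatment against untreated controls, where 100% means dead plants and 0% means like controls. Plants in sandy loam are sprayed on green parts at the one-leaf stage with aqueous WP or EC preparations at 600 to 800 l/ha plus 0.2% wetting agent.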

[2] = tested on: ABUTH; assay: Pre-emergence herbicidal action against ABUTH; format: in vivo, Abutilon theophrasti; details: for Pre-emergence action against ABUTH (herbicidal activity): 80 g/ha, scored visually after 3 weeks vs untreated controls (100% = plants have died, 0% = like control plants); for Pre-emergence action against ABUTH (herbicidal activity in percent): dosage 20 g/ha, scored visually after 3 weeks vs untreated controls, 100% = plants have died, 0% = like control plants
Method in brief: (§2)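 Seeds sown in sandy loam, soil-covered; compound sprayed on soil surface pre-emergence. Application: WP/EC, 600–800 l/ha, 0.2% wetting agent. Readout: visual % damage at 3 weeks.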

[3] = tested on: VIOTR; assay: Pre-emergence herbicidal action against VIOTR; format: in vivo, Viola tricolor
Method in brief: as §2

[4] = tested on: SETVI; assay: Pre-emergence herbicidal action against SETVI; format: in vivo, Setaria viridis; details: dosage 80 g/ha
Method in brief: as §2

[5] = tested on: AMARE; assay: Pre-emergence herbicidal action against AMARE; format: in vivo, Amaranthus retroflexus
Method in brief: as §2

[6] = tested on: AVEFA; assay: Pre-emergence herbicidal action against AVEFA; format: in vivo, Avena fatua; details: 80 g/ha, pre-emergence
Method in brief: as §2

[7] = tested on: MATIN; assay: Pre-emergence herbicidal action against MATIN; format: in vivo, Matricaria inodora
Method in brief: as §2

[8] = tested on: ALOMY; assay: Pre-emergence herbicidal action against ALOMY; format: in vivo, Alopecurus myosuroides; details: 80 g/ha, pre-emergence, scored visually after 3 weeks vs untreated controls (100% = plants have died, 0% = like control plants)
Method in brief: as §2

[9] = tested on: ABUTH; assay: Post-emergence herbicidal action against ABUTH; format: in vivo, Abutilon theophrasti; details: visual assessment about 3 weeks after treatment vs untreated controls
Method in brief: as §1

[10] = tested on: VERPE; assay: Pre-emergence herbicidal action against VERPE; format: in vivo, Veronica persica
Method in brief: as §2

[11] = tested on: VERPE; assay: Post-emergence herbicidal action against VERPE; format: in vivo, Veronica persica; details: 20 g/ha
Method in brief: as §1

[12] = tested on: AVEFA; assay: Post-emergence herbicidal action against AVEFA; format: in vivo, Avena fatua; details: 20 g/ha, visual assessment about 3 weeks after treatment, 100% = plants have died, 0% = like control plants
Method: Seeds of monocotyledonous and dicotyledonous weed and crop plants are laid out in sandy loam soil in wood-fiber pots, covered with soil and cultivated in a greenhouse under good growth conditions. 2 to 3 weeks after sowing, the test plants are treated at the one-leaf stage. The compounds of the invention, formulated in the form of wettable powders (WP) or as emulsion concentrates (EC), are then sprayed onto the green parts of the plants in the form of an aqueous suspension or emulsion at a water application rate equivalent to 600 to 800 l/ha, with addition of 0.2% wetting agent. After the test plants have been left to stand in the greenhouse under optimal growth conditions for about 3 weeks, the action of the preparations is assessed visually in comparison to untreated controls (herbicidal action in percent (%): 100% activity=the plants have died, 0% activity=like control plants). […] The tables below illustrate, in an illustrative manner, the post-emergence herbicidal action of the compounds of the invention, the herbicidal activity being stated in percent.

[13] = tested on: PHBPU; assay: Post-emergence herbicidal action against PHBPU; format: in vivo, Pharbitis purpurea; details: dosage 20 g/ha
Method in brief: as §1

[14] = tested on: PHBPU; assay: Pre-emergence herbicidal action against PHBPU; format: in vivo, Pharbitis purpurea; details: dosage 80 g/ha
Method in brief: as §2

[15] = tested on: ECHCG; assay: Pre-emergence herbicidal action against ECHCG; format: in vivo, Echinochloa crus-galli
Method in brief: as §2

[16] = tested on: DIGSA; assay: Pre-emergence herbicidal action against DIGSA; format: in vivo, Digitaria sanguinalis
Method in brief: as §2

[17] = tested on: SETVI; assay: Post-emergence herbicidal action against SETVI; format: in vivo, Setaria viridis
Method in brief: as §1

[18] = tested on: AMARE; assay: Post-emergence herbicidal action against AMARE; format: in vivo, Amaranthus retroflexus; details: 20 g/ha, visual assessment about 3 weeks after treatment, 100% = plants have died, 0% = like control plants
Method in brief: as §1

[19] = tested on: MATIN; assay: Post-emergence herbicidal action against MATIN; format: in vivo, Matricaria inodora; details: dosage 20 g/ha
Method in brief: as §1

[20] = tested on: VIOTR; assay: Post-emergence herbicidal action against VIOTR; format: in vivo, Viola tricolor
Method in brief: as §1

[21] = tested on: ALOMY; assay: Post-emergence herbicidal action against ALOMY; format: in vivo, Alopecurus myosuroides; details: dosage 20 g/ha, visual assessment about 3 weeks after treatment vs untreated controls
Method in brief: as §1

[22] = 20 g/ha, scored visually after 3 weeks vs untreated controls, 100% = plants have died, 0% = like control plants
[23] = 80 g/ha, scored visually after 3 weeks vs untreated controls (100% = plants have died, 0% = like control plants)

| SMILES | Post-emergence action against ECHCG in % ([1]; dosage 5 g/ha) [%] | Post-emergence action against ECHCG in % ([1]; dosage 20 g/ha) [%] | Pre-emergence action against ABUTH (herbicidal activity) [2] [%] | Pre-emergence action against ABUTH (herbicidal activity in percent) [2] [%] | Pre-emergence action against VIOTR in % ([3]; dosage 20 g/ha) [%] | Pre-emergence action against VIOTR in % ([3]; dosage 80 g/ha) [%] | Pre-emergence action against SETVI in % [4] [%] | Pre-emergence action against AMARE in % [5, 22] [%] | Pre-emergence action against AMARE in % [5, 23] [%] | Pre-emergence action against AVEFA in % [6] [%] | Pre-emergence action against MATIN in % ([7]; dosage 20 g/ha) [%] | Pre-emergence action against MATIN in % ([7]; dosage 80 g/ha) [%] | Pre-emergence action against ALOMY (herbicidal activity) [8] [%] | Post-emergence action against ABUTH in % ([9]; dosage 20 g/ha) [%] | Pre-emergence action against VERPE in % ([10]; dosage 80 g/ha) [%] | Post-emergence action against VERPE in % [11] [%] | Post-emergence action at 20 g/ha against AVEFA in % [12] [%] | Post-emergence action against PHBPU in % [13] [%] | Pre-emergence action against PHBPU in % [14] [%] | Pre-emergence action against ECHCG in % ([15]; 20 g/ha) [%] | other results |
| --- | --- | --- | --- | --- | --- | --- | --- | --- | --- | --- | --- | --- | --- | --- | --- | --- | --- | --- | --- | --- | --- |
| Cc1c(C(=O)Nc2nnnn2C)ccc(C(F)(F)F)c1C(=O)NC(C)C1CC1 (centres unmarked) [Example 1-31] | 80 | 80 | 100 | 100 | 100 | 100 | 100 | 100 | 100 | 90 | 100 | 100 | 90 | 80 | 100 | 80 | 90 | 80 | 80 | 90 | Post-emergence action against ABUTH in % ([9]; dosage 5 g/ha): 80%; Pre-emergence action against ECHCG in % ([15]; 80 g/ha): 100%; Pre-emergence action against DIGSA in % ([16]; dosage 20 g/ha): 100%; Pre-emergence action against DIGSA in % ([16]; dosage 80 g/ha): 100% |
| CCn1nnnc1NC(=O)c1ccc(C(F)(F)F)c(C(=O)NCC2CC2)c1SC [Example 2-84] | 100 | 100 | 100 | 100 | 80 | 100 | 100 | 100 | 100 | 100 | 100 | 100 | 90 | 90 | 80 | 80 | 100 | 80 | 90 | 90 | Post-emergence action against SETVI in % ([17]; dosage 5 g/ha): 80%; Post-emergence action against SETVI in % ([17]; dosage 20 g/ha): 100%; Post-emergence action at 20 g/ha against AMARE in % [18]: 100%; Pre-emergence action against VERPE in % ([10]; dosage 20 g/ha): 80%; Post-emergence action against MATIN in % [19]: 80%; Post-emergence action against VIOTR in % ([20]; 5 g/ha): 100%; Post-emergence action against VIOTR in % ([20]; 20 g/ha): 100%; Pre-emergence action against ECHCG in % ([15]; 80 g/ha): 100%; Post-emergence action against ALOMY in % [21]: 90% |
